Experimental data as given in paper PMC7073924, “2-Aminomethylene-5-sulfonylthiazole Inhibitors of Lysyl Oxidase (LOX) and LOXL2 Show Significant Efficacy in Delaying Tumor Growth” (Journal of Medicinal Chemistry, 2019).
pIC50: −log10 of the molar value. Values joined by “and” are separate entries in the source; they are usually repeats but may differ in a detail not shown here. Equal values may be shown once. Where a name gives a salt, the structure may show the parent alone. Read-outs that look alike come from different tables or passages of the source.

Columns and labels:
LOXL2 [1] = target: T1, LOXL2 (Homo sapiens, UniProt Q9Y4K0); assay: LOXL2 enzyme assay (Promega ROS-Glo, cadaverine substrate); format: biochemical
T1 sequence (Q9Y4K0 26-774): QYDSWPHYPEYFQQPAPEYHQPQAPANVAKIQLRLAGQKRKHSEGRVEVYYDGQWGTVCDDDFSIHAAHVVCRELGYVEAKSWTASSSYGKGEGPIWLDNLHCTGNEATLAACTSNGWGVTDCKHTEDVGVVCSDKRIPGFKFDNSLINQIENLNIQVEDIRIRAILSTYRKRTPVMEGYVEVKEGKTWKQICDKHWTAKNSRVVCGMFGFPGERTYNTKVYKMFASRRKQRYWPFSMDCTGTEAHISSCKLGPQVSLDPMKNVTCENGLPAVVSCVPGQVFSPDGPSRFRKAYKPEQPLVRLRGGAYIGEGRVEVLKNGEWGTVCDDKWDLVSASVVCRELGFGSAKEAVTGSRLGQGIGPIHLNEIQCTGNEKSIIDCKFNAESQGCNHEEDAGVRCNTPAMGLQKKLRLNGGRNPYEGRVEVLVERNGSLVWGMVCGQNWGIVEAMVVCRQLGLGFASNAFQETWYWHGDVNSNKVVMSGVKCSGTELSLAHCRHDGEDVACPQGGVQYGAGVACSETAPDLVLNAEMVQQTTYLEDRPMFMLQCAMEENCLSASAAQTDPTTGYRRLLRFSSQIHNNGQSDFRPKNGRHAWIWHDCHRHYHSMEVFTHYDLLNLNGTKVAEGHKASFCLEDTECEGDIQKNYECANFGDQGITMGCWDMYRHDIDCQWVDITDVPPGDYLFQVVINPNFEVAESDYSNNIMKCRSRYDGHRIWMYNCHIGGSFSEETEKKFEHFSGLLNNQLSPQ
Description: (§1) LOXL2 and LOXL3 were purchased from R&D Systems. LOX, LOXL2, and LOXL3 catalytic activity were determined using the Promega ROS-Glo assay kit with cadaverine dihydrochloride as substrate, BAPN as the reference inhibitor control, a preincubation time of 20 min, 1 h, or 3 h, with nine dilutions from a top concentration of 10 μM or 100 μM.

LOXL2 [2] = target: T1, LOXL2; format: biochemical
Description: The enzyme/inhibitor mixture was then diluted 100-fold into a solution containing all enzyme reaction components, and the activity of the enzyme was assessed.
LOXL2 catalytic activity was determined using the Amplex Red hydrogen peroxide assay kit with cadaverine dihydrochloride as substrate. […] The enzyme/inhibitor mixture was then diluted 100-fold into a solution containing substrate and detection reagents and read kinetically every 5 min.

LOX = target: T2, LOX (Sus scrofa, UniProt P45845); assay: LOX enzyme assay (Promega ROS-Glo, cadaverine substrate); format: biochemical, pig
T2 sequence (P45845 1-249): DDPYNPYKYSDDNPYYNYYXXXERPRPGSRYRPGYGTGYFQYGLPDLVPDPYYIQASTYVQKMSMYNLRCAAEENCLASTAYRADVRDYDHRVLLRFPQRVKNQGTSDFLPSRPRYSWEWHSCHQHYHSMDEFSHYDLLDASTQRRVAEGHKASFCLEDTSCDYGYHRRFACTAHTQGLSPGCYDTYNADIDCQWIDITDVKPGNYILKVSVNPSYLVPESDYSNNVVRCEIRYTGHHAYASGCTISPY
Description: as §1

LOXL3 [3] = target: T3, LOXL3 (Homo sapiens, UniProt P58215); assay: LOXL3 enzyme assay (Promega ROS-Glo, cadaverine substrate); format: biochemical
T3 sequence (P58215 26-753): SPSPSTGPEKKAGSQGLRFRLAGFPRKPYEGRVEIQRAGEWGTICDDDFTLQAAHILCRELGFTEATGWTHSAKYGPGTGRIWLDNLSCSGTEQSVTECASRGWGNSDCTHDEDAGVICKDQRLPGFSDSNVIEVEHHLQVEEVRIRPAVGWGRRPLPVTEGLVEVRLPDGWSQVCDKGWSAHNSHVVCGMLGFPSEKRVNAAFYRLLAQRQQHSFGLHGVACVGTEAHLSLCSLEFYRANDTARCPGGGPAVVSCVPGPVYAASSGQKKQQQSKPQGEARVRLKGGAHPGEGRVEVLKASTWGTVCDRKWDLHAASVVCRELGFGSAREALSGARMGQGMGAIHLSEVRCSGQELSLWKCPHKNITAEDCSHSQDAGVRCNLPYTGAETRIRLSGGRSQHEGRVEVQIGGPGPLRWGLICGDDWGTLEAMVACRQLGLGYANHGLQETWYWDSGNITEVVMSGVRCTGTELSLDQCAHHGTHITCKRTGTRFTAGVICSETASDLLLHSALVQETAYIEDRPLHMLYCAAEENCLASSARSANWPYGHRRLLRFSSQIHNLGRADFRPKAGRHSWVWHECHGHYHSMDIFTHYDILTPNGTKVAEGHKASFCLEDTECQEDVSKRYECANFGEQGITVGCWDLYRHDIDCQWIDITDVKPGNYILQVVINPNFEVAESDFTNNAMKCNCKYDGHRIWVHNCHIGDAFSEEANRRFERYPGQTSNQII
Description: as §1

LOXL3 [4] = target: T3, LOXL3; set-up: method as in PMID 30536539, PMID 28471663; settings: literature compounds; cited from earlier work
MAO-A = target: T4, MAO-A (Homo sapiens, UniProt P21397); format: biochemical; settings: Table 7
T4 construct: purchased Sigma
T4 sequence (P21397 1-527): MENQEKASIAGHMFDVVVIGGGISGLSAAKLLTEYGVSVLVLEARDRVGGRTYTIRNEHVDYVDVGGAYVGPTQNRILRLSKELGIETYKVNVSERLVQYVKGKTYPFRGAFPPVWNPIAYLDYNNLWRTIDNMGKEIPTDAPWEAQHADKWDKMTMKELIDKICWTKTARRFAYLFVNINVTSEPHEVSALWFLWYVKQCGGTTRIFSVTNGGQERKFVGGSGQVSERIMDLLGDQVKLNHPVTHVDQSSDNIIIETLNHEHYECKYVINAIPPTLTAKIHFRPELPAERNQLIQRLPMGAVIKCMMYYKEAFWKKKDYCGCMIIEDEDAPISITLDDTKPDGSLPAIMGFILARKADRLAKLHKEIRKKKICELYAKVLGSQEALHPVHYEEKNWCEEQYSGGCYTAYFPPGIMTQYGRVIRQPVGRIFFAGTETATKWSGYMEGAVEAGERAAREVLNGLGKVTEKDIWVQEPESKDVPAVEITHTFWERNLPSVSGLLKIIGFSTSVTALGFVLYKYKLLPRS
Description: (§2) All amine oxidase assays were performed with concentrations as above. MAO-A and MAO-B enzymes were purchased from Sigma. The catalytic activity of MAO-A and MAO-B was determined using the Promega MAO-Glo assay kit (substrate included), with clorgyline and deprenyl as reference inhibitor controls, respectively. DAO was purchased from Sigma, and the catalytic activity was determined using the Promega ROS-Glo assay kit, with aminoguanidine as the reference inhibitor control. SSAO was purchased from Sigma. SSAO catalytic activity was determined using the Promega MAO-Glo assay kit, with mofegiline as the reference inhibitor control.

SSAO [5] = target: T5, SSAO (Homo sapiens, UniProt Q16853); format: biochemical
T5 construct: purchased Sigma
T5 sequence (Q16853 1-763): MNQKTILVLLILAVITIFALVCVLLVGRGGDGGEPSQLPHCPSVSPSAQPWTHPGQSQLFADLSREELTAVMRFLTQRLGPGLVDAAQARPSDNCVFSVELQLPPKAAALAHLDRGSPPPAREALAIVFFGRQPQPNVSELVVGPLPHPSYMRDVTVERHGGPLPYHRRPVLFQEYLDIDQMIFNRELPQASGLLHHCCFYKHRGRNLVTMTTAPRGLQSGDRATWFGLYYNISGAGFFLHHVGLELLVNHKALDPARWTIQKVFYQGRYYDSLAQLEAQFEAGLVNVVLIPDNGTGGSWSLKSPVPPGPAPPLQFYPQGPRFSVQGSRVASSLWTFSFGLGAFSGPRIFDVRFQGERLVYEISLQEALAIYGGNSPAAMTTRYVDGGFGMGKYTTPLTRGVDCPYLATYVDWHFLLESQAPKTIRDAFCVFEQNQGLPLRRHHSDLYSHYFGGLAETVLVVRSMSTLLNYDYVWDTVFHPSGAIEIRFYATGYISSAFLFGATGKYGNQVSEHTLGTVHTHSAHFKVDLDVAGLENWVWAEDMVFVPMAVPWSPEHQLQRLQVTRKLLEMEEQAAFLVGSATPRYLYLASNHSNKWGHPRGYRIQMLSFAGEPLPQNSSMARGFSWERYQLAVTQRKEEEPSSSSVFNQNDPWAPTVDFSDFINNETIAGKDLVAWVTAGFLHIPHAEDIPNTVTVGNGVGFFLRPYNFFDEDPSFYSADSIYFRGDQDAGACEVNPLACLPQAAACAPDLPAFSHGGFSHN
Description: as §2

MAO-B = target: T6, MAO-B (Homo sapiens, UniProt P27338); format: biochemical; settings: Table 7
T6 construct: purchased Sigma
T6 sequence (P27338 1-520): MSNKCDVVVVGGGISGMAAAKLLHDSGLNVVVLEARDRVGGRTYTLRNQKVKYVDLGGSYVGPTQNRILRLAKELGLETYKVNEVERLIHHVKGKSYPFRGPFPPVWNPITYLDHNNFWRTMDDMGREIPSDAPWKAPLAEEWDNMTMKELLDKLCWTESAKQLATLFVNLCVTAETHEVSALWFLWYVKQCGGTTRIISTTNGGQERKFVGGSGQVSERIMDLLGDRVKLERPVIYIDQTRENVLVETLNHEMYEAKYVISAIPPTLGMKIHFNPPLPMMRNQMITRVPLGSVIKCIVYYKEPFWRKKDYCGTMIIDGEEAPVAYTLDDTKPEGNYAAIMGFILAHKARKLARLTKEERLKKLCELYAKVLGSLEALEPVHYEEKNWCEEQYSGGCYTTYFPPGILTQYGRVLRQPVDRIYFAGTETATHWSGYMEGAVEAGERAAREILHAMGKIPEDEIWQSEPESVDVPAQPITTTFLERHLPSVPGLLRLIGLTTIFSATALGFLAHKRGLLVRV
Description: as §2

DAO = target: T7, DAO (Sus scrofa, UniProt Q9TRC7); format: biochemical; settings: Table 7
T7 construct: purchased Sigma
T7 sequence (Q9TRC7 25-755): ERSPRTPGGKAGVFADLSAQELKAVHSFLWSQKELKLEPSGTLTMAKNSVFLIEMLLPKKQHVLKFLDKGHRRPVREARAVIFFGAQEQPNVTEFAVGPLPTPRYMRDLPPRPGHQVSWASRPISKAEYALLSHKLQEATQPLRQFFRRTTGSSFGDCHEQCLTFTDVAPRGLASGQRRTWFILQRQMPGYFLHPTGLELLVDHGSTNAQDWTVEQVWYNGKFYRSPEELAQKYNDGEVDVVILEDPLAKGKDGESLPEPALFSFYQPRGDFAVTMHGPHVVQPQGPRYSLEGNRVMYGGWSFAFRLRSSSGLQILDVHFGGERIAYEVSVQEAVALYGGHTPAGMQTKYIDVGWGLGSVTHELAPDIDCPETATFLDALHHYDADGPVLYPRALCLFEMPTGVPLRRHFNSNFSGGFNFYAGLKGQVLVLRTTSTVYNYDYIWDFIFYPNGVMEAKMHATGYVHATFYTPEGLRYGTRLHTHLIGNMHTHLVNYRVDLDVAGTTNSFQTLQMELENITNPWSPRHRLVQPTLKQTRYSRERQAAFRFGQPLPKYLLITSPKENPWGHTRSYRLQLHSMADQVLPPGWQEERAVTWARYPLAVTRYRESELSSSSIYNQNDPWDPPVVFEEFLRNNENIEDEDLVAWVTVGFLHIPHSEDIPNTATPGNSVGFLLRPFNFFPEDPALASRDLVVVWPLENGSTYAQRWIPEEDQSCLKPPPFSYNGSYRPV
Description: as §2

SSAO [6] = target: T5, SSAO; assay: Assessment of compound as a substrate for SSAO (Amplex red); format: biochemical; settings: hydrogen peroxide quantified with Amplex red kit; benzylamine positive control
[7] = supplementary csv, unit inferred

Row | SMILES | pIC50 (LOXL3 [3]) | pIC50 (MAO-A) | pIC50 (SSAO [5]; Table 7) | pIC50 (LOX; Table 6, 1 h preincubation) | pIC50 (MAO-B) | pIC50 (DAO) | also measured
1 | N#CCCN [BAPN, β-aminopropionitrile, reference compound] | 6.51 |  |  |  |  |  | pIC50 (LOXL2 [1]; read-out: LOXL2, 20 min, IC50): 5.37; pIC50 (LOXL2 [1]; read-out: LOXL2, 1 h, IC50): 6.18; pIC50 (LOXL2 [1]; read-out: LOXL2, 3 h, IC50): 6.43; pIC50 (LOXL2 [1]; read-out: LOXL2 IC50): 6.18; LOXL2 inhibition at 10 × IC50 before dilution (LOXL2 [2]): complete inhibition; mode of LOXL2 inhibition (LOXL2 [2]): irreversible inhibitor; pIC50 (LOX): 5.50
2 | Cc1c(-c2cccc(S(=O)(=O)N(C)C)c2)c2ncccc2n1C/C(F)=C/CN [Compound 1] |  |  |  |  |  |  | activity for LOXL2 and LOXL3 within x-fold (LOXL3 [4]): ≤ 3 fold
3 | NCc1cc(Oc2cccc(C(=O)N3C[C@@H](O)[C@H](F)C3)c2)nc(C(F)(F)F)c1 [Compound 2] |  |  |  |  |  |  | activity for LOXL2 and LOXL3 within x-fold (LOXL3 [4]): ≤ 3 fold
4 | Cn1cc(-c2cc(S(C)(=O)=O)cc(S(=O)(=O)c3cnc(CN)s3)c2)cn1 [Compound 21a, (5-((3-(1-Methyl-1H-pyrazol-4-yl)-5-(methylsulfonyl)phenyl)sulfonyl)thiazol-2-yl)methanamine Hydrochloride] | 5.91 and 5.82 | < 4.00 | 4.88 and 4.76 | 5.47 and 5.58 | < 4.00 | < 4.00 | pIC50 (LOXL3 [3]; Table 6, 1 h preincubation): ~6.00
5 | CCc1cc(-c2cnn(C)c2)cc(S(=O)(=O)c2cnc(CN)s2)c1 [Compound 21b, (5-((3-Ethyl-5-(1-methyl-1H-pyrazol-4-yl)phenyl)sulfonyl)thiazol-2-yl)methanamine Hydrochloride] |  |  |  |  |  |  | substrate of SSAO (SSAO [6]): not a substrate of SSAO; pIC50 (SSAO [5]): 4.54 and 4.71
6 | CS(=O)(=O)c1cc(-c2ccccc2)cc(S(=O)(=O)c2csc(CN)n2)c1 [Compound 22b, (4-((5-(Methylsulfonyl)-[1,1′-biphenyl]-3-yl)sulfonyl)thiazol-2-yl)methanamine Hydrochloride] | 5.41 and 5.37 | < 4.00 | < 4.00 | < 4.00 | < 4.00 | < 4.00 | pIC50 (LOX; [7]): < 4.00
7 | Cn1cc(-c2cc(S(C)(=O)=O)cc(S(=O)(=O)c3csc(CN)n3)c2)cn1 [Compound 22c, (4-((3-(1-Methyl-1H-pyrazol-4-yl)-5-(methylsulfonyl)phenyl)sulfonyl)thiazol-2-yl)methanamine Hydrochloride] | 5.12 and 5.17 | < 4.00 | < 4.00 | < 4.00 | < 4.00 | < 4.00 | pIC50 (LOX; [7]): < 4.00
